For series [1], the system named is NCI-H322M cells associated with non-small cell lung cancer. Description: NCI DTP cancer cell growth inhibition, NCI-H322M. The format is cell-based. The note with it: a large negative number denotes stronger activity. How it is done: (§1) A detailed evaluation of cancer cell growth inhibition effect for T111-T115 was conducted by the NIH-National […] (NCI) Developmental Therapeutic Program (DTP) (FIG. 4). A large negative number denotes stronger activity.

The test system of series [2] is EKVX cells associated with non-small cell lung cancer. Description: NCI DTP cancer cell growth inhibition, EKVX. The format is cell-based. Conditions: a large negative number denotes stronger activity. How it is done: as §1
The subject of the next series is 60-cell line panel. Description: NCI DTP cancer cell growth inhibition, 60-cell line panel overall. The format is cell-based. The note with it: across the 60-cell line panel. The method, then:
as §1

The test system of series [3] is NCI-H522 cells associated with non-small cell lung cancer. As to the kind of experiment: NCI DTP cancer cell growth inhibition, NCI-H522. The format is cell-based. Conditions: a large negative number denotes stronger activity. How it is done: as §1

Some results are limits rather than exact numbers.

`COc1ccc(-n2cnnc2-c2cc(OC)c(OC)c(OC)c2)cc1F` registered a melting point of 151 to 152 °C.

On to `COc1ccc(-n2cnnc2-c2cc(OC)c(OC)c(OC)c2)cc1` [Compound T111, 3-(3,4,5-trimethoxyl)phenyl-4-(4-methoxyl)phenyl-1,2,4(H)triazole], for which the melting point was in the range of 163 to 165 °C.

Turning to `COc1cc(-c2nncn2-c2ccc(N(C)C)cc2)cc(OC)c1OC` [Compound T112, 3-(3,4,5-trimethoxyl)phenyl-4-(N,N-dimethylamino) phenyl-1,2,4(H)triazole], the melting point is 145 to 147 °C.

Consider `COc1ccc(-n2cnnc2-c2cc(OC)c(OC)c(OC)c2)cc1O` [Compound T113, 3-(3,4,5-trimethoxyl)phenyl-4-(3-hydroxyl, 4-methoxyl)phenyl-1,2,4(H)triazole], for which the melting point lay in the range of 197 to 198 °C.

Compound `COc1cc(-c2nncn2-c2ccc3c(ccn3C)c2)cc(OC)c1OC` [Compound T115] displayed a melting point of 157 to 159 °C. For the same compound, the “growth inhibition (log 10GI50)” value in series [1] is < −8.00. In series [2], the “growth inhibition (log 10GI50)” value is listed as < −8.00. Besides, in the series on 60-cell line panel, the “overall growth inhibition performance” value is on record as “performed uniformly well”. The “growth inhibition (log 10GI50)” value in series [3] is < −8.00.

As a reminder, the melting point is the temperature, or range, at which the solid turns liquid.

These data come from US8569350B2, “Anti-mitotic anti-proliferative compounds” (Rutgers, The State University of New Jersey, priority 2004, dated 2013).
